We go through 7 molecules from US20240376052A1, “N-SUBSTITUTED INDOLE DERIVATIVES AS SEROTONERGIC AGENTS USEFUL FOR THE TREATMENT OF DISORDERS RELATED THERETO” (Mindset Pharma Inc., priority 2021, published 2024).

Read-outs that look alike come from different tables or passages of the source.

Series [1] can be described thus: Liver microsomes stability, dog. The note with it: for Predicted hepatic CL: Dog liver microsomes; for Remaining Percentage (%): Dog; for CLint scaled at 2 μM / half-life at 2 μM / microsomal CLint at 2 μM: dog, microsomes.
A short description of series [2]: Liver microsomes stability, rat. The note with it: for Predicted hepatic CL: Rat liver microsomes; for Remaining Percentage (%): Rat; for CLint scaled at 2 μM / half-life at 2 μM / microsomal CLint at 2 μM: rat, microsomes. As for the experimental part: (§1) The objective of this study was to estimate in vitro metabolic stability of representative compounds of the application in pooled human and male mouse liver microsomes. The concentrations of parent compounds in reaction systems were evaluated by LC-MS/MS for estimating the stability in pooled human and male mouse liver microsomes. The in vitro intrinsic clearances of test compounds were determined as well.
(§2) A master solution in the “Incubation Plate” containing phosphate buffer, ultra-pure H2O, MgCl2 solution and liver microsomes was made according to Table 3. The mixture was pre-warmed at 37° C. water bath for 5 minutes.
(§3) 40 μL of 10 mM NADPH solution was added to each well. The final concentration of NADPH was 1 mM. The negative control samples were prepared by replacing NADPH with 40 μL of ultra-pure H2O. Samples were prepared in duplicate. Negative controls were prepared in singlet.
(§4) The reaction was started with the addition of 4 μL of 200 μM test compounds or control compounds to each master solution to get the final concentration of 2 μM. This study was performed in duplicate.
(§5) Aliquots of 50 μL were taken from the reaction solution at 0, 15, 30, 45 and 60 minutes. The reaction solutions were stopped by the addition of 4 volumes of cold methanol with IS (100 nM alprazolam, 200 nM imipramine, 200 nM labetalol and 2 μM ketoprofen). Samples were centrifuged at 3,220 g for 40 minutes. Aliquot of 90 μL of the supernatant was mixed with 90 μL of ultra-pure H2O and then was used for LC-MS/MS analysis.
(§6) LC/MS analysis was performed for all samples from this study using a Shimadzu liquid chromatograph separation system equipped with degasser DGU-20A5R; solvent delivery unit LC-30AD; system controller SIL-30AC; column oven CTO-30A; CTC Analytics HTC PAL System. Mass spectrometric analysis was performed using an Triple Quad™ 5500 instrument.
(§7) All calculations were carried out using Microsoft Excel. Peak area ratios of test compound to internal standard (listed in the below table) were determined from extracted ion chromatograms.
(§8) All calculations were carried out using Microsoft Excel. Peak areas were determined from extracted ion chromatograms. The slope value, k, was determined by linear regression of the natural logarithm of the remaining percentage of the parent drug vs. incubation time curve.
(§9) The in vitro half-life (in vitro t1/2) was determined from the slope value:
(§10) Conversion of the in vitro t1/2(min) into the in vitro intrinsic clearance (in vitro CLint, in μL/min/mg proteins) was done using the following equation (mean of duplicate determinations): […]

The nature of series [3]: Liver microsomes stability, human. The note with it: for Predicted hepatic CL: Human liver microsomes; for Remaining Percentage (%): Human; for CLint scaled at 2 μM / half-life at 2 μM / microsomal CLint at 2 μM: human, microsomes. As for the experimental part: as §1, §2, §3, §4, §5, §6, §7, §8, §9, §10
A further series addresses human 5-HT2A receptor (Homo sapiens (Human), UniProt P28223). In words: Human 5-HT2A radioligand binding assay ([3H]-ketanserin).
Series [4] can be described thus: Liver microsomes stability, mouse. The note with it: for Predicted hepatic CL: Mouse liver microsomes; for Remaining Percentage (%): Mouse; for CLint scaled at 2 μM / half-life at 2 μM / microsomal CLint at 2 μM: male, mouse, microsomes. The protocol: as §1, §2, §3, §4, §5, §6, §7, §8, §9, §10
Where [5] appears, read: [3H]-ketanserin competition, read-out: h5-HT2A IC50.

As for `CCCCC/C=C\C/C=C\CCCCCCCC(=O)n1cc(C[C@H]2CCCN2C)c2cc(OC)ccc21` [Compound I-6, (9Z,12Z)-1-(5-Methoxy-3-(((R)-1-methylpyrrolidin-2-yl)methyl)-1H-indol-1-yl)octadeca-9,12-dien-1-one], the “Predicted hepatic CL” value in series [1] is reported as 22.75 mL/min/kg; in series [2] it was 14.24 mL/min/kg; in series [3], 4.62 mL/min/kg; in series [4] it was 33.37 mL/min/kg. Moreover, the “Remaining Percentage (%)” value in series [1] (With NADPH, 0 min) worked out at 100.00%; in series [1] (With NADPH, 30 min) it was 49.51%; in series [1] (With NADPH, 60 min), 35.40%; in series [1] (Without NADPH, 0 min), 100.00%; in series [1] (Without NADPH, 30 min), 84.09%; in series [1] (Without NADPH, 60 min), 91.76%. In addition, the “Remaining Percentage (%)” value in series [2] (With NADPH, 0 min) stood at 100.00%; in series [2] (With NADPH, 30 min), 83.04%; in series [2] (With NADPH, 60 min), 72.53%; in series [2] (Without NADPH, 0 min), 100.00%; in series [2] (Without NADPH, 30 min) it was 93.17%; in series [2] (Without NADPH, 60 min), 92.62%. The “Remaining Percentage (%)” value in series [3] (With NADPH, 0 min) is 100.00%; in series [3] (With NADPH, 30 min) it was 91.33%; in series [3] (With NADPH, 60 min) it was 86.76%; in series [3] (Without NADPH, 0 min) it was 100.00%; in series [3] (Without NADPH, 30 min) it was 89.58%; in series [3] (Without NADPH, 60 min), 83.22%. Also, the “Remaining Percentage (%)” value turned out to be 100.00% in series [4] (With NADPH, 0 min); 76.15% in series [4] (With NADPH, 30 min); 69.51% in series [4] (With NADPH, 60 min); 100.00% in series [4] (Without NADPH, 0 min); 81.25% in series [4] (Without NADPH, 30 min); 91.07% in series [4] (Without NADPH, 60 min). Also, the CLint scaled – broadly, the capacity of the preparation to metabolise the compound, expressed as a volume cleared per time – at 2 μM was found to be 86.3 mL/min/kg in series [1], 19.2 mL/min/kg in series [2], 5.94 mL/min/kg in series [3] and 53 mL/min/kg in series [4]. Also, the half-life (commonly how long it takes for the measured level to halve) at 2 μM was 0.667 h in series [1], 2.16 h in series [2], 4.88 h in series [3] and 1.91 h in series [4]. Moreover, the microsomal CLint (usually the rate of metabolic loss divided by the concentration) at 2 μM in series [1] is 34.6 µL/min/mg; in series [2], 10.7 µL/min/mg; in series [3] it was 4.74 µL/min/mg; in series [4], 12.1 µL/min/mg. Further, the IC50 (commonly the concentration that inhibits the measured activity by half) on human 5-HT2A receptor was < 2000 nM.

Molecule `[2H]C([2H])([2H])N(C([2H])([2H])[2H])C([2H])([2H])C([2H])([2H])c1cn(C(=O)CCCCCCC/C=C\C/C=C\CCCCC)c2cccc(F)c12` [Compound I-9, (9Z,12Z)-1-(3-(2-(Bis(methyl-d3)amino)ethyl-1,1,2,2-d4)-4-fluoro-1H-indol-1-yl)octadeca-9,12-dien-1-one] returned an IC50 at human 5-HT2A receptor of 2000 to 5000 nM.

Consider `CCCCC/C=C\C/C=C\CCCCCCCC(=O)n1cc(C2CCN(C)C2)c2ccccc21` (racemic) [Compound I-12, (9Z,12Z)-1-(3-(1-Methylpyrrolidin-3-yl)-1H-indol-1-yl)octadeca-9,12-dien-1-one], for which the IC50 at human 5-HT2A receptor (setting [5]) was in the range of 2000 to 5000 nM.

In the case of `CCCCC/C=C\C/C=C\CCCCCCCC(=O)n1cc(C[C@H]2CCCN2C)c2ccccc21` [Compound I-5, (9Z,12Z)-1-(3-(((R)-1-Methylpyrrolidin-2-yl)methyl)-1H-indol-1-yl)octadeca-9,12-dien-1-one], the “Predicted hepatic CL” value in series [1] is 21.51 mL/min/kg; in series [2], 24.83 mL/min/kg; in series [3], 6.42 mL/min/kg; in series [4], 41.60 mL/min/kg. In addition, the “Remaining Percentage (%)” value in series [1] (With NADPH, 0 min) is on record as 100.00%; in series [1] (With NADPH, 30 min), 65.44%; in series [1] (With NADPH, 60 min), 42.66%; in series [1] (Without NADPH, 0 min), 100.00%; in series [1] (Without NADPH, 30 min), 87.66%; in series [1] (Without NADPH, 60 min) it was 90.58%. For the same molecule, the “Remaining Percentage (%)” value turned out to be 100.00% in series [2] (With NADPH, 0 min); 69.74% in series [2] (With NADPH, 30 min); 46.98% in series [2] (With NADPH, 60 min); 100.00% in series [2] (Without NADPH, 0 min); 97.35% in series [2] (Without NADPH, 30 min); 95.87% in series [2] (Without NADPH, 60 min). Moreover, the “Remaining Percentage (%)” value was 100.00% in series [3] (With NADPH, 0 min); 86.52% in series [3] (With NADPH, 30 min); 80.05% in series [3] (With NADPH, 60 min); 100.00% in series [3] (Without NADPH, 0 min); 85.69% in series [3] (Without NADPH, 30 min); 80.25% in series [3] (Without NADPH, 60 min). The “Remaining Percentage (%)” value was found to be 100.00% in series [4] (With NADPH, 0 min); 74.79% in series [4] (With NADPH, 30 min); 58.84% in series [4] (With NADPH, 60 min); 100.00% in series [4] (Without NADPH, 0 min); 80.19% in series [4] (Without NADPH, 30 min); 90.42% in series [4] (Without NADPH, 60 min). Further, the CLint scaled at 2 μM is 70.8 mL/min/kg in series [1], 45.1 mL/min/kg in series [2], 9.3 mL/min/kg in series [3] and 77.3 mL/min/kg in series [4]. The half-life at 2 μM was determined as 0.814 h in series [1], 0.917 h in series [2], 3.11 h in series [3] and 1.31 h in series [4]. Moreover, the microsomal CLint at 2 μM is 28.4 µL/min/mg in series [1], 25.2 µL/min/mg in series [2], 7.42 µL/min/mg in series [3] and 17.7 µL/min/mg in series [4]. Further, the IC50 at human 5-HT2A receptor was < 2000 nM.

Regarding `[2H]c1c([2H])c([2H])c2c(c1[2H])c(CCN(C([2H])([2H])[2H])C([2H])([2H])[2H])c([2H])n2C(=O)CCCCCCC/C=C\C/C=C\CCCCC` [Compound I-7, (9Z,12Z)-1-(3-(2-(Bis(methyl-d3)amino)ethyl)-1H-indol-1-yl-2,4,5,6,7-d5)octadeca-9,12-dien-1-one], the IC50 on human 5-HT2A receptor lay within 2000 to 5000 nM.

Regarding `CCCCC/C=C\C/C=C\CCCCCCCC(=O)n1cc(C2CCN(C)C2)c2cc(OC)ccc21` (racemic) [Compound I-13, (9Z,12Z)-1-(5-Methoxy-3-(1-methylpyrrolidin-3-yl)-1H-indol-1-yl)octadeca-9,12-dien-1-one], the IC50 on human 5-HT2A receptor (setting [5]) lay in the range of 2000 to 5000 nM.

Consider `[2H]C([2H])([2H])Oc1ccc2c(c1)c(C([2H])([2H])C([2H])([2H])N(C([2H])([2H])[2H])C([2H])([2H])[2H])cn2C(=O)CCCCCCC/C=C\C/C=C\CCCCC` [Compound I-4, (9Z,12Z)-1-(3-(2-(Bis(methyl-d3)amino)ethyl-1,1,2,2-d4)-5-(methoxy-d3)-1H-indol-1-yl)octadeca-9,12-dien-1-one], for which, on human 5-HT2A receptor, the IC50 was < 2000 nM.
